Experiments:
[1] = target: Mtb HpoR (Rv0767c); HpoRMtb (Mycobacterium tuberculosis, UniProt P9WMD7)
[2] = target: T1, HpoR (Ms5860) (Mycolicibacterium smegmatis, UniProt A0R4J9); test: isothermal titration calorimetry; type: binding
T1 sequence (A0R4J9 1-199): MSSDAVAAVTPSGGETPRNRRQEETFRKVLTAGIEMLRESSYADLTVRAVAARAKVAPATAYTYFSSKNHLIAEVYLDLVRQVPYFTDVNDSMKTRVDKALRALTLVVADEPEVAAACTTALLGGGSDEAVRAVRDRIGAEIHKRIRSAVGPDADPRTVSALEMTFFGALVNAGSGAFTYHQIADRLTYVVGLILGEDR

[3] = test system: HpoR (HpoRMS) (Mycobacterium smegmatis mc2 155); test: SPR

Sequence of Mtb HpoR (Rv0767c); HpoRMtb (P9WMD7 whole entry): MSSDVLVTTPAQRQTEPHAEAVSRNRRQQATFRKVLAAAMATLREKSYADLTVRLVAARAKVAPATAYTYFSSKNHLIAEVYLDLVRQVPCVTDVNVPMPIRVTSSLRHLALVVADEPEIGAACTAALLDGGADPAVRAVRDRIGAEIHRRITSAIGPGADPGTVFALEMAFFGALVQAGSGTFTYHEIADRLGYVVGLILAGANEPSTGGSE

Molecule	UV cross-linking with radiolabelled ligand, SDS-PAGE autoradiography [1]	Kd [2]	binding signal [3]
Nc1nc2c(ncn2[C@@H]2O[C@@H]3COP(=O)(O)O[C@H]4[C@@H](O)[C@H](n5cnc6c(=O)[nH]c(N)nc65)O[C@@H]4COP(=O)(O)O[C@H]3[C@H]2O)c(=O)[nH]1 [c-di-GMP]	Mtb HpoR (Rv0767c) showed a good binding ability for c-di-GMP	1780 ± 230 nM	
Ms5860p, biotin-labeled			150 RU

Source: PMC5909442 (Nucleic Acids Research, 2018)
